Legend:
Type in all cases: cell-based
SNU668 cells = assay: Cell viability of gastric cancer cells cultured in fibroblast conditioned media; conditions: FIG. 3
Procedure: Gastric cancer cells, SNU668 cells, were cultured in conditioned media of fibroblasts, CAF98 and CAF104, respectively, and treated with Example to confirm changes in cell viability of cancer cells.
FIG. 3 illustrates results of confirming the cell viability of SNU66, a gastric cancer cell, under various conditions according to Experimental Example of the present disclosure.

[1] = tested on: fibroblasts CAF47, CAF51, CAF98, and CAF104; assay: Confirmation of inhibition of senescence of fibroblasts (shape observation); conditions: FIG. 2
Procedure: An experiment was performed to confirm changes in shapes of fibroblasts by treating several fibroblasts CAF47, CAF51, CAF98, and CAF104 with an anti-cancer drug, 5-fluorouracil (5-FU), and then treating Example thereto.
FIG. 2 illustrates results of observing the shapes of fibroblasts under various conditions according to Experimental Example of the present disclosure.

SNU668 = assay: Migration of gastric cancer cells in fibroblast condition media / co-culture with CAFs; conditions: for migration of gastric cancer cells: FIGS. 4 and 5
Procedure: An experiment was performed to confirm changes in migration of gastric cancer cells when treating gastric cancer cells with a substance according to Example (ftaxilide).
SNU668 was co-cultured with 5-FU in various types of fibroblast condition media, and sequentially additionally treated with 5-FU and Example to confirm changes in the migration of gastric cancer cells.
FIG. 4 illustrates results of observing the migration of SNU668, a gastric cancer cell, under various conditions according to Experimental Example of the present disclosure.
FIG. 5 illustrates results of measuring the migration of SNU668, a gastric cancer cell, under various conditions according to Experimental Example of the present disclosure.

[2] = CAF treated with Example (100 μM 5-FU+5 μM Example)

Structure (SMILES) | cell viability of cancer cells (SNU668 cells; SNU668 in conditioned medium of CAF98 and CAF104, treated with 5-FU (C98_5FU, C104_5FU)) | shapes of fibroblasts (characteristics of senescent cells) ([1]; fibroblasts CAF47, CAF51, CAF98, CAF104 treated with 5-FU) | migration of gastric cancer cells (SNU668; CAFs senesced by 5-FU then co-cultured with SNU668 (100 μM 5-FU)) | migration of gastric cancer cells (SNU668; SNU668 treated with 5-FU (SNU668+5FU)) | cell viability of cancer cells (SNU668 cells; SNU668 in conditioned medium of CAF98 and CAF104, 5-FU, further treated with Example (C98_5FU_Ftaxil, C104_5FU_Ftaxil)) | shapes of fibroblasts ([1]; fibroblasts treated with 5-FU, then with Example) | senescence of CAF (SNU668; [2]) | migration of gastric cancer cells (SNU668; [2])
O=c1[nH]cc(F)c(=O)[nH]1 [Example 5-FU, 5-fluorouracil] | the cell viability of cancer cells further increased | the cell sizes increased and the cell growth rate slowed down | the migration of gastric cancer cells further increased | the migration of gastric cancer cells increased | – | – | – | –
Cc1cccc(C)c1NC(=O)c1ccccc1C(=O)O [Example, Ftaxilide] | – | – | – | – | decreased again | the senescent fibroblasts returned to their original shapes | the senescence of CAF was prevented | decreased again

Source: patent US20240197658A1, “COMPOSITION FOR INHIBITING ANTI-CANCER DRUG RESISTANCE” (AJOU UNIVERSITY INDUSTRY-ACADEMIC COOPERATION FOUNDATION, priority 2022, published 2024)
